# Key:
# 3T3-L1 [1] = experiment: Induction of insulin-stimulated [14C]deoxy-glucose uptake in mouse 3T3L1 cells pretreated at 10 uM for 24 hrs before insulin stimulation by scintillation counting relative to vehicle-treated control; format: functional
# [2] = target: T1, Peroxisome proliferator-activated receptor gamma (Homo sapiens) (UniProt P37231); experiment: Agonist activity at PPARgamma (unknown origin) transfected in HEK293 cells assessed as transcriptional activity at 10 uM relative to rosiglitazone; format: cell-based
# T1 sequence (whole entry): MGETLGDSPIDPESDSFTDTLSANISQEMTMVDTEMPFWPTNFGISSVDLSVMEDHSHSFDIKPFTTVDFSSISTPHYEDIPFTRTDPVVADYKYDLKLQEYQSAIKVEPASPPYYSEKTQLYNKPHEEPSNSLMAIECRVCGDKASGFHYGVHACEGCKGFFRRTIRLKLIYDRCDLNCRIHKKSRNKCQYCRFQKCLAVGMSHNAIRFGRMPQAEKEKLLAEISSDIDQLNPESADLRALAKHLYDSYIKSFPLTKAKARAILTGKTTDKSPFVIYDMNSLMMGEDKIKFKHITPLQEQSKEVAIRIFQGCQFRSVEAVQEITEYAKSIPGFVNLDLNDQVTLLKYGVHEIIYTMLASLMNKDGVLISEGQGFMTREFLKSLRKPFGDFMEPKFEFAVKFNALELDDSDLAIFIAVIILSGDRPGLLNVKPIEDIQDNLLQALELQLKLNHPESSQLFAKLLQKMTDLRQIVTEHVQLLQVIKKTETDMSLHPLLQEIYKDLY
# [3] = target: T1, Peroxisome proliferator-activated receptor gamma (Homo sapiens); experiment: Binding affinity to PPARgamma (unknown origin) at 10 uM by Polarscreen competitor assay relative to rosiglitazone
# 3T3-L1 [4] = experiment: Induction of adipogenesis in mouse 3T3L1 cells at 20 ug/ml by microscopic analysis relative to rosiglitazone; format: functional
Emax [2] [%],Imax [3] [%],SMILES,fold change (FC) (3T3-L1 [1]),Emax at 20 µg/mL (3T3-L1 [4]) [%]
10,79,O=S(=O)(Nc1cnc(OC2CCN(c3ccccc3)CC2)c(Cl)c1)c1ccc(F)c(Cl)c1,0.98,20
12,72,Cc1ccccc1S(=O)(=O)Nc1cnc(OC2CCN(c3ccccc3)CC2)c(Cl)c1,0.97,22
14,98,O=S(=O)(Nc1cnc(OC2CCN(c3ccccc3)CC2)c(Cl)c1)c1ccc(C(F)(F)F)cc1,0.99,20
16,82,CN(CCOc1ncc(NS(=O)(=O)c2ccc(Cl)cc2Cl)cc1Cl)c1nc2ccccc2o1,1.12,22
14,78,CN(CCOc1ccc(NS(=O)(=O)c2ccc(Cl)c(Cl)c2)cn1)c1nc2ccccc2o1,1.02,20
15,47,COc1ccc(S(=O)(=O)Nc2cnc(OC3CCN(c4ccccc4)CC3)c(Cl)c2)cc1,1.12,30
13,76,O=S(=O)(Nc1cnc(OC2CCN(c3ccccc3)CC2)c(Cl)c1)c1ccc(-c2ccccn2)s1,0.93,15
11,37,N#Cc1ccc(S(=O)(=O)Nc2cnc(OC3CCN(c4ccccc4)CC3)c(Cl)c2)cc1,1.07,20
12,78,O=S(=O)(Nc1cnc(OC2CCN(c3ccccc3)CC2)c(Cl)c1)c1ccc(F)cc1F,1.12,21
14,79,O=S(=O)(Nc1cnc(OC2CCN(c3ccccc3)CC2)c(Cl)c1)c1ccc(Cl)cc1Cl,1.26,18
17,51,COc1ccc(S(=O)(=O)Nc2cnc(OC3CCN(c4ccccc4)CC3)c(Cl)c2)c(OC)c1,1.44,20

# From ChEMBL document CHEMBL2424534, “Design and synthesis of non-TZD peroxisome proliferator-activated receptor (PPAR) modulator” (2013)
